# Measured values reported in patent US20040186046A1, “Treatment of type 1 diabetes with PDE5 inhibitors” (Pfizer Inc, priority 2003, published 2004).
# What was measured:
# U397 cells = conditions: statement quoted from U.S. Pat. No. 6,479,493, column 38; cited from earlier work
# [1] = system: control and STZ-treated rats; assay: Plasma glucose in control and STZ-treated rats (model of Type 1 diabetes) on chronic sildenafil; type: in vivo, rat; conditions: for minimum glucose levels (Table 3), Change from vehicle / minimum glucose levels (Table 3), Sildenafil group / minimum plasma glucose (Table 2), Change from vehicle / minimum plasma glucose (Table 2), Sildenafil group: sildenafil 60 mg/kg/day sc; for minimum plasma glucose (Table 2), Change from vehicle / minimum plasma glucose (Table 2), Sildenafil group: average, week 2 to week 6; for statistical significance (p) of effect of sildenafil on minimum glucose levels / statistical significance (p) of effect of Sildenafil on average glucose: vs vehicle
# Experimental: STZ is a nitrosamine which is toxic to the pancreatic β-cells and STZ-treated rats have been used as an experimental model for Type 1 diabetes (see e.g. Ari et al, Clin Sci (Colch) 1999:96:365).
# (§1) To induce Type 1 diabetes, rats of 200-250 g were injected intra-peritoneally with streptozotocin (60 mg/kg) in citrate phosphate buffer, pH4.5 or the equivalent volume of vehicle. The development of non-keturonic hyperglycaemic diabetes was induced within 48 h and was confirmed by determining blood glucose levels in blood obtained from the tail vein of the rats at 48 h after STZ administration and monitored […] thereafter.
# The Sildenafil-treated rats were divided in two group—normal and STZ-treated. In addition, there were two non-sildenafil groups—again normal and STZ treated. Throughout this period blood samples were taken from the tail vein on a weekly basis. These samples were taken prior to dosing so that trough concentrations could be estimated (ie at 6-8 h post dose). A further sample was taken at week 8 ([…] post dosing). Plasma from these blood samples, from all rats treated with sildenafil, and some controls, were assayed for sildenafil (and its n-desmethyl metabolite).
# The plasma from these samples was stored at −20° C. and analysed for levels of glucose using the Roche/Hitachi 912 Clinical Chemistry Analyzer (Roche Diagnostics Corp., Indianapolis, Ind.) with kits supplied by Roche. All assays were conducted according to instructions provided by the manufacturers.
# [2] = Sildenafil mean plasma concentration (free drug) in normal and STZ-treated rats on chronic sc dosing; type: in vivo, rat; conditions: chronic sildenafil 3 × 20 mg/kg sc/day
# Experimental: as §1
# Throughout this period blood samples were taken from the tail vein on a weekly basis. These samples were taken prior to dosing so that trough concentrations could be estimated (ie at 6-8 h post dose). A further sample was taken at week 8 ([…] post dosing).
compound,measurement,setting,value
"CCCc1nn(C)c2c(=O)[nH]c(-c3cc(S(=O)(=O)N4CCN(C)CC4)ccc3OCC)nc12 [Sildenafil, 5-[2-ethoxy-5-(4-methyl-1-piperazinylsulphonyl)phenyl]-1-methyl-3-n-propyl-1,6-dihydro-7H-pyrazolo[4,3-d]pyrimidin-7-one]",induction of apoptosis,U397 cells,does not induce apoptosis
same,"minimum glucose levels (Table 3), Change from vehicle",[1]; Control rats,-13 mg/dL
same,"minimum glucose levels (Table 3), Sildenafil group",[1]; Control rats,176 mg/dL
same,"minimum plasma glucose (Table 2), Change from vehicle",[1]; Control rats,-25 mg/dL
same,"minimum plasma glucose (Table 2), Sildenafil group",[1]; Control rats,190 mg/dL
same,statistical significance (p) of effect of sildenafil on minimum glucose levels,"[1]; STZ-treated animals, statistically significant effect",< 0.01
same,"minimum glucose levels (Table 3), Change from vehicle",[1]; STZ-treated rats,-269 mg/dL
same,"minimum glucose levels (Table 3), Sildenafil group",[1]; STZ-treated rats,462 mg/dL
same,"minimum plasma glucose (Table 2), Change from vehicle",[1]; STZ-treated rats,-220 mg/dL
same,"minimum plasma glucose (Table 2), Sildenafil group",[1]; STZ-treated rats,583 mg/dL
same,statistical significance (p) of effect of Sildenafil on average glucose,[1]; STZ-treated rats,< 0.05
same,effect on average plasma glucose (in words),"[1]; control and STZ-treated rats, decrease greater in STZ-treated animals",lowered average glucose in both types of rat
same,statistical significance (p) of effect of Sildenafil on average glucose,[1]; control rats,< 0.01
same,statistical significance (p) of effect of sildenafil on minimum glucose levels,"[1]; control rats, no statistically significant effect",> 0.10
same,Sildenafil Mean plasma concentration (free drug),"[2]; Normal rats, 2 weeks (6-8 h post dose), n = 12",36 nM
same,Sildenafil Mean plasma concentration (free drug),"[2]; Normal rats, 4 weeks (6-8 h post dose), n = 12",45 nM
same,Sildenafil Mean plasma concentration (free drug),"[2]; Normal rats, 6 weeks (6-8 h post dose), n = 12",45 nM
same,Sildenafil Mean plasma concentration (free drug),"[2]; Normal rats, 8 weeks (32-35 h post dose), n = 12",28 nM
same,Sildenafil Mean plasma concentration (free drug),"[2]; STZ rats, 2 weeks (6-8 h post dose), N = 6-10",79 nM
same,Sildenafil Mean plasma concentration (free drug),"[2]; STZ rats, 4 weeks (6-8 h post dose), N = 6-10",41 nM
same,Sildenafil Mean plasma concentration (free drug),"[2]; STZ rats, 6 weeks (6-8 h post dose), N = 6-10",57 nM
same,Sildenafil Mean plasma concentration (free drug),"[2]; STZ rats, 8 weeks (32-35 h post dose), N = 6-10",11 nM
